Where two headings read alike, the source gives them in different places.
What was measured:
[1] = biological target: full-length SHP2-E76K oncogenic mutant (Homo sapiens (Human), UniProt Q06124, E76K); assay: DiFMUP fluorescence intensity phosphatase inhibition assay, SHP2-E76K; type: biochemical
From the text: (§1) To test the synthesized compounds for their potential to inhibit SHP2 activity, a fluorescence intensity-based assay using 6,8-difluoro-4-methylumbelliferyl phosphate (DiFMUP) as the substrate was adapted for three recombinant SHP2 constructs: 1) the SHP2 catalytic domain (SHP2cat; residues 248-527), 2) the full-length SHP2-E76K oncogenic mutant, and 3) the full-length SHP2 wild-type (SHP2-WT). The recombinant SHP2 proteins were expressed and purified. A dually phosphorylated peptide derived from the insulin receptor substrate 1 (IRS-1) served as a surrogate binding protein and was used to activate SHP2-WT. […] Michaelis-Menten experiments to determine the DiFMUP Michaelis-Menten constant (Kmn) for each SHP2 construct were performed and yielded the following values: SHP2-WT, Km=60 μM; SHP2-E76K, Km=20 μM; SHP2cat, Km=20 μM. Relative maximum rates (Vmax) of the DiFMUP reactions were as follows: SHP2-WT, Vmax=871 AFU/min; SHP2-E76K, Vmax, =2730 AFU/min; SHP2cat, Vmax=2912 AFU/min. IC50 values for each compound were determined from initial rates in 10-point dose-response assays using DiFMUP at a concentration corresponding to its Km value for the respective SHP2 construct.
(§2) SHP2 inhibitors were tested at room temperature (RT) in a 384-well plate format standard phosphatase fluorescence intensity assay using DiFMUP (Invitrogen/Thermo Fisher Scientific, Carlsbad, CA) as a substrate and a total reaction volume of 25 μL. SHP2 inhibitors or vehicle (DMSO) were spotted in triplicate into a black Greiner FLUOTRAC™ 200 384-well microplate (#781076, Greiner) for a 10-point dose-response assay using an Echo®555 Liquid Handler (Labcyte, Inc., San Jose, CA). PTP working solutions were prepared at a 0.625 nM concentration (for a final concentration of 0.5 nM) in buffer containing 50 mM Bis-Tris pH 6.0, 50 mM NaCl, 5 mM DTT, and 0.01% Tween® 20. Prior to the assay, a dually phosphorylated insulin receptor substrate 1 (IRS-1) peptide [625 nM (500 nMfinal) (30)] was added to full-length WT SHP2 working solutions and incubated for 20 min. DiFMUP working solutions at 5× final concentration were prepared in 50 mM Bis-Tris pH 6.0, 50 mMNaCl, and 0.01% Tween 20. 20 μL of PTP working solution was dispensed into the microplate and incubated with inhibitor for 20 min at RT. […] The reaction was initiated by addition of 5 μL DiFMUP working solutions. Fluorescence intensity was measured in kinetic mode (every minute for 7 or 10 min) using a Tecan Spark® Multimode Microplate Reader (Tecan, Groedig, Austria) with an excitation wavelength of 360 nm and an emission wavelength of 460 nm. The initial rates were determined from the linear progression curves of the PTP reaction. The nonenzymatic hydrolysis of the substrate was corrected by using a control without addition of enzyme. IC50 values were calculated from the corrected initial rates by nonlinear regression using the program GraphPad Prism (GraphPad Software, Inc., San Diego, CA) Version 8. Dose-response inhibition assays of SHP2cat using the substrate OMFP were performed similarly as described above for DiFMUP. OMFP was used at a concentration corresponding to its Km value for SHP2cat (50 μM final). Fluorescence intensity was measured in kinetic mode (every minute for 10 min) using a Tecan Spark Multimode Microplate Reader with an excitation wavelength of 485 nm and an emission wavelength of 535 nm. Initial rates were determined and IC50 vales calculated as described above.

[2] = biological target: full-length SHP2 wild-type (SHP2-WT) (Homo sapiens (Human), UniProt Q06124); assay: DiFMUP fluorescence intensity phosphatase inhibition assay, SHP2-WT activated with IRS-1 peptide; type: biochemical; details: DiFMUP at Km (60 μM), IRS-1 peptide activated
From the text: as §1, §2

[3] = biological target: SHP2 catalytic domain (SHP2cat; residues 248-527) (Homo sapiens (Human), UniProt Q06124); assay: DiFMUP fluorescence intensity phosphatase inhibition assay, SHP2cat; type: biochemical
From the text: as §1, §2

[4] = biological target: PTP1B catalytic domain (Homo sapiens (Human), UniProt P18031); assay: DiFMUP phosphatase inhibition assay, PTP1B; type: biochemical; details: catalytic domain, DiFMUP at Km (25 μM)
Protocol: (§3) Selectivity is one of the biggest challenges in PTP inhibitor development. […] Similar to SHP2, we adapted a 384-well plate format DiFMUP assay for recombinant PTP1B and STEP and performed Michaelis-Menten experiments to determine DiFMUP Km values for each phosphatase. IC50 values of our inhibitors for PTP1B and STEP were determined in 10-point dose-response assays with DiFMUP used at the concentration corresponding to the respective Km value. […] Other inhibitors with good relative selectivity for SHP2 included #02 (13-fold selective over PTP1B; 73-fold selective over STEP) and #05 (5-fold selective over PTP1B; >71-fold selective over STEP).
as §2

[5] = biological target: striatal-enriched tyrosine phosphatase (STEP) catalytic domain (Homo sapiens (Human), UniProt P54829); assay: DiFMUP phosphatase inhibition assay, STEP; type: biochemical; details: catalytic domain, DiFMUP at Km (4 μM)
Protocol: as §3, §2

[6] = test system: Kasumi-1 acute myeloid leukemia (AML) cells; assay: Cell viability assay (CellTiter-Glo), Kasumi-1; type: cell-based; details: Kasumi-1 cells, various concentrations, 3 d
From the text: (§4) Inhibition of SHP2 has been reported to inhibit the growth of cancer cells including Kasumi-1 acute myeloid leukemia (AML) and KYSE-520 esophageal cancer cells. […] Cell viability is shown as a percentage of the vehicle (DMSO) control and represents the mean±SD. B) #02 dose-response curves in cell viability assays using Kasumi-1, KYSE-520, MOLM-13, and […] cells after 3 d in culture. The percentages compared to DMSO vehicle control were curve fitted using nonlinear regression (log[inhibitor] vs. normalized response, variable slope) and represent the mean±SD. C) Cell viability of […] and MDA-MB-468 triple-negative breast cancer (TNBC) cells in the presence of various concentrations of #02 or the SHP2 allosteric inhibitor SHP099 after 5 d in culture. Cell viability is shown as a percentage of DMSO vehicle control, representing mean±SD, and curve fitted as in B). D) Colony formation assay (11 d) of […] and MDA-MB-468 TNBC cells in the presence of various concentrations of #02 or the SHP2 allosteric inhibitor SHP099. E) Phospho-ERK1/2 (p-ERK1/2) immunoblot analysis from total cell lysates of MOLM-13 AML cells treated with #02 at the indicated concentrations, or with SHP2 allosteric inhibitor RMC-4550 (RMC, 1 μM) for 3 h or 24 h. The quantitation of p-ERK1/2 levels is shown as the percentage of the DMSO (vehicle) control and represents data from three independent experiments (mean±SD). F) Viability of AML patient-derived cells in the presence of 10 μM #02 or 10 μM SHP2 allosteric inhibitor RMC-4550 after 2 d, 4 d, or 6 d in culture. Cell viability is shown as a percentage of the DMSO vehicle control and represents the mean±SD (*p<0.05; **p<0.01; ****p<0.0001; unpaired test with Welch's correction) G) Viability of MOLM-13 cells and MOLM-13-Cas9-mCherry cells with SHP2 knockout (KO) in the presence of #01, #02, and allosteric inhibitor SHP099 at various concentrations (10-point dose-response). The percentages compared to the DMSO vehicle control were curve fitted using nonlinear regression (log[inhibitor] vs. normalized response, variable slope) and represent the mean±SD. SHP2 protein levels in regular MOLM-13 cells (WT), MOLM-13-Cas9-mCherry cells (Cas9), and MOLM-13-Cas9-mCherry cells with SHP2 KO (SHP2 KO) were evaluated by immunoblot analysis using SHP2 antibodies.
(§5) Viability of AML, esophageal carcinoma, and TF-1 cells was assessed using the ATP-depletion assay CellTiter-Glo® (Promega). Cells were harvested at 1×10^6/mL to 2×10^6 cells/mL with cell numbers determined by trypan blue using the Countess Cell counter (Thermo Scientific) and resuspended in culture media. […] Luminescence was read on a Tecan Spark® Multimode Microplate Reader and data analyzed using Graph Pad Prism software.

[7] = test system: KYSE-520 esophageal cancer cells; assay: Cell viability assay (CellTiter-Glo), KYSE-520; type: cell-based; details: KYSE-520 cells, various concentrations, 3 d
From the text: as §4, §5

[8] = DiFMUP at Km (20 μM), 10-point dose-response, read-out: SHP2-E76K IC50
[9] = DiFMUP at Km (20 μM), read-out: SHP2cat IC50

Sequence of full-length SHP2 wild-type (SHP2-WT) (Q06124 whole entry, other chains not shown): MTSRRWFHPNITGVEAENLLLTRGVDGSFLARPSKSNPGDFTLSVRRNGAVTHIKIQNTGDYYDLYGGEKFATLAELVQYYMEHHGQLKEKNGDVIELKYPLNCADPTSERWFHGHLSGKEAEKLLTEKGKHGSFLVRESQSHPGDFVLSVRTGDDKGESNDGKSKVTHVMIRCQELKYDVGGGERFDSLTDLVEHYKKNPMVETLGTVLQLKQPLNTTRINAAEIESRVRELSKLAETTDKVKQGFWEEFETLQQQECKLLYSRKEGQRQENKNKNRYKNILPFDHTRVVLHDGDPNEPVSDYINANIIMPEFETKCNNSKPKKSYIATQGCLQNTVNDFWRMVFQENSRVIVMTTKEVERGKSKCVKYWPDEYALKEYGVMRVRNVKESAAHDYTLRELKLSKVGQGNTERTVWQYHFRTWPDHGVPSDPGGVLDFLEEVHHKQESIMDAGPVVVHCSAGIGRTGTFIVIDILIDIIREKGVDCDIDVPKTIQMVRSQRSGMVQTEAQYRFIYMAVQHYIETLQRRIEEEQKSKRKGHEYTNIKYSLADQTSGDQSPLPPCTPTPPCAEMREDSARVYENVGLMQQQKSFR
Sequence of SHP2 catalytic domain (SHP2cat; residues 248-527) (Q06124 248-527): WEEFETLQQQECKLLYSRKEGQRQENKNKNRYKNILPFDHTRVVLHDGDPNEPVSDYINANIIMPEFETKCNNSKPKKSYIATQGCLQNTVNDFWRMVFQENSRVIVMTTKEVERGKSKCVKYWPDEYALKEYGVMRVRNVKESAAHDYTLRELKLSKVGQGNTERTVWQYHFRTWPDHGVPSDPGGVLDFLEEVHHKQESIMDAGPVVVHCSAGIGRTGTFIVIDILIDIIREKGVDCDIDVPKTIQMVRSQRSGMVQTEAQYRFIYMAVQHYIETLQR
Sequence of full-length SHP2-E76K oncogenic mutant (Q06124 whole entry E76K, the tested form may be a part): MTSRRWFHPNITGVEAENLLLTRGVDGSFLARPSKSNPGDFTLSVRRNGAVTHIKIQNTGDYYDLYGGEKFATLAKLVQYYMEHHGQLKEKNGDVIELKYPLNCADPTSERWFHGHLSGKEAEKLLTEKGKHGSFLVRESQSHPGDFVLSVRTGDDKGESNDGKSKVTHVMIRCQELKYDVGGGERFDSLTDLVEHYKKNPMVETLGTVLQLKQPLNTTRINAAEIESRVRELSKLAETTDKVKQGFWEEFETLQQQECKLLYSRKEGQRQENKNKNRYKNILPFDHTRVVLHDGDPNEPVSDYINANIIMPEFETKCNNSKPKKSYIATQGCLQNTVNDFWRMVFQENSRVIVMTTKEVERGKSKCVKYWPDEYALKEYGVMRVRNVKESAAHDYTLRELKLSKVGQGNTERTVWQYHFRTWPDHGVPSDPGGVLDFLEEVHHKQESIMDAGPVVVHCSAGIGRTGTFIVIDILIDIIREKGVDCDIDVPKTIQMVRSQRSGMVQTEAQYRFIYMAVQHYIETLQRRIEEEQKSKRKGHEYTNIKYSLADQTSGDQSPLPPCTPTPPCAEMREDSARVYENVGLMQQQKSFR
Sequence of striatal-enriched tyrosine phosphatase (STEP) catalytic domain (P54829 280-565 limits assumed): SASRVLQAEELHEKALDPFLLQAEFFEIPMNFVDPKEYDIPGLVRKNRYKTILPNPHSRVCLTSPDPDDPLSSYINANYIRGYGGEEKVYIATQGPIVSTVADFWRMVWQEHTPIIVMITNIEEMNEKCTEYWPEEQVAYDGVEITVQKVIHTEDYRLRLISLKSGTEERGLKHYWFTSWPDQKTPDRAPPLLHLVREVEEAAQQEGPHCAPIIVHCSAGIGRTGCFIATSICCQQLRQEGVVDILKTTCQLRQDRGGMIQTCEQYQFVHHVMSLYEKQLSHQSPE
Sequence of PTP1B catalytic domain (P18031 1-300): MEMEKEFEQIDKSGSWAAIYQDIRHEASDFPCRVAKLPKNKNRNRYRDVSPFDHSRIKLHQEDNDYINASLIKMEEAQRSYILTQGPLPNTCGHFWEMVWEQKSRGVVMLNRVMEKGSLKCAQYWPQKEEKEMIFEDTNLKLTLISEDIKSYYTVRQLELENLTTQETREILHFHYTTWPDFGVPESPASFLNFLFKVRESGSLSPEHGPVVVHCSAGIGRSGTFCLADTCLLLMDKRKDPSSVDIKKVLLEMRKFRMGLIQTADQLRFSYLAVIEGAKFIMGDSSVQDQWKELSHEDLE

Compound: O=C1CCC/C1=C\c1ccc(-c2ccc(O)c(C(=O)Nc3ccccc3)c2)o1 [#03, 2-Hydroxy-5-(5-((2-oxocyclopentylidene)methyl)furan-2-yl)-N-phenylbenzamide]
- IC50 [1, 8]: 1000 to 20000 nM
- IC50 [2]: 1000 to 20000 nM
- IC50 [3, 9]: 1000 to 20000 nM
- IC50 ([3]; catalytic domain, DiFMUP at Km, read-out: SHP2 IC50): 1100 nM
- IC50 [4]: 1900 nM
- IC50 [5]: 27000 nM

Compound: O=C1/C(=C/c2ccc(-c3ccc(O)c(C(=O)N4CCCCC4)c3)o2)Sc2ccccc21 [#12, (Z)-2-((5-(4-Hydroxy-3-(piperidine-1-carbonyl)phenyl)furan-2-yl)methylene)benzo[b]thiophen-3(2H)-one]
- IC50 [1, 8]: 1000 to 20000 nM
- IC50 [2]: 20000 to 100000 nM
- IC50 [3, 9]: 1000 to 20000 nM

Compound: CC(C)NC(=O)c1cccc(-c2ccc(/C=C3\Sc4ccccc4C3=O)o2)c1 [#20, (Z)—N-Isopropyl-3-(5-((3-oxobenzo[b]thiophen-2(3H)-ylidene)methyl)furan-2-yl)benzamide]
- IC50 [1, 8]: ≥ 100000 nM
- IC50 ([1]; inactive analog used as negative control, SHP2 construct not specified, read-out: SHP2 IC50): > 100000 nM
- IC50 [2]: ≥ 100000 nM
- effect on cancer cell growth [6]: no notable effects
- effect on cancer cell growth [7]: no notable effects

Compound: O=C1/C(=C/c2ccc(-c3ccc(O)c(C(=O)O)c3)o2)CCC/C1=C\c1ccc(-c2ccc(O)c(C(=O)O)c2)o1 [#40]
- IC50 [1, 8]: ≤ 1000 nM
- IC50 [2]: ≤ 1000 nM
- IC50 [3, 9]: ≤ 1000 nM

Compound: O=C(/C=C/c1ccc(-c2cccc(C(=O)O)c2)o1)/C=C/c1ccc(-c2cccc(C(=O)O)c2)o1 [#41]
- IC50 [1, 8]: ≤ 1000 nM
- IC50 [2]: ≤ 1000 nM
- IC50 [3, 9]: ≤ 1000 nM

Compound: O=C1/C(=C/c2ccc(-c3cccc(C(=O)O)c3)o2)CC/C1=C\c1ccc(-c2cccc(C(=O)O)c2)o1 [#42]
- IC50 [1, 8]: ≤ 1000 nM
- IC50 [2]: ≤ 1000 nM
- IC50 [3, 9]: ≤ 1000 nM

Compound: O=C(/C=C/c1ccc(-c2ccc(O)c(C(=O)O)c2)o1)c1cccc(C(=O)/C=C/c2ccc(-c3ccc(O)c(C(=O)O)c3)o2)c1 [#43]
- IC50 [1, 8]: ≤ 1000 nM
- IC50 [2]: 1000 to 20000 nM
- IC50 [3, 9]: ≤ 1000 nM

Compound: O=C(O)c1cccc(-c2ccc(/C=C/C(=O)c3cccc(C(=O)/C=C/c4ccc(-c5cccc(C(=O)O)c5)o4)c3)o2)c1 [#45]
- IC50 [1, 8]: 1000 to 20000 nM
- IC50 [2]: 1000 to 20000 nM
- IC50 [3, 9]: 1000 to 20000 nM

Compound: N#Cc1cccc(-c2ccc(/C=C/C(=O)/C=C/c3ccc(-c4cccc(C#N)c4)o3)o2)c1 [#46]
- IC50 [1, 8]: 1000 to 20000 nM
- IC50 [2]: 1000 to 20000 nM
- IC50 [3, 9]: 1000 to 20000 nM

Source: patent US20250026741A1, “INHIBITORS OF THE ONCOGENIC SHP2 PHOSPHATASE AND USES THEREOF” (Sanford Burnham Prebys Medical Discovery Institute, priority 2021, published 2025)
